# Laboratory results: ChEMBL document CHEMBL6127104, “Prorocentin-5: A Cytotoxic Polyketide from the Benthic Marine Dinoflagellate Prorocentrum lima” (J Nat Prod, 2024)
# What was measured:
# Type in all cases: functional
# HCT-116 [1] = assay: Induction of apoptosis in human HCT-116 cells assessed as early apoptotic cells at 1 uM incubated for 24 hrs by Annexin V-FITC/PI staining based flow cytometric analysis (reference value: 1.90 %)
# HCT-116 [2] = assay: Induction of apoptosis in human HCT-116 cells assessed as late apoptotic cells at 1 uM incubated for 24 hrs by Annexin V-FITC/PI staining based flow cytometric analysis (reference value: 6.15 %)
# N2a [3] = assay: Induction of apoptosis in mouse Neuro2a cells assessed as late apoptotic cells at 0.1 uM incubated for 24 hrs by Annexin V-FITC/PI staining based analysis (reference value: 0.81 %)
# N2a [4] = assay: Induction of apoptosis in mouse Neuro2a cells assessed as fold increase in late apoptotic cells at 1 uM incubated for 24 hrs by Annexin V-FITC/PI staining based analysis
# N2a [5] = assay: Induction of apoptosis in mouse Neuro2a cells assessed as viable cells at 0.1 uM incubated for 24 hrs by Annexin V-FITC/PI staining based analysis (reference value: 91.70 %); conditions: read-out: Activity
# HepG2 [6] = assay: Induction of cell cycle arrest in human HepG2 cells assessed as accumulation of cells at G2/M phase at 0.1 uM incubated for 24 hrs by flow cytometric analysis (reference value: 6.7 %)
# HepG2 [7] = assay: Induction of apoptosis in human HepG2 cells assessed as viable cells at 0.1 uM incubated for 24 hrs by Annexin V-FITC/PI staining based flow cytometric analysis (reference value: 90.08 %); conditions: read-out: Activity
# HCT-116 [8] = assay: Induction of apoptosis in human HCT-116 cells assessed as fold increase in late apoptotic cells at 1 uM incubated for 24 hrs by Annexin V-FITC/PI staining based analysis
# HepG2 [9] = assay: Induction of apoptosis in human HepG2 cells assessed as fold increase in late apoptotic cells at 1 uM incubated for 24 hrs by Annexin V-FITC/PI staining based flow cytometric analysis
# N2a [10] = assay: Induction of cell cycle arrest in mouse Neuro2a cells assessed as accumulation of cells at G0/G1 phase at 1 uM incubated for 24 hrs by flow cytometric analysis (reference value: 61.5 %)
# HepG2 [11] = assay: Induction of apoptosis in human HepG2 cells assessed as necrotic cells at 1 uM incubated for 24 hrs by Annexin V-FITC/PI staining based flow cytometric analysis (reference value: 3.02 %)
# HepG2 [12] = assay: Induction of apoptosis in human HepG2 cells assessed as viable cells at 1 uM incubated for 24 hrs by Annexin V-FITC/PI staining based flow cytometric analysis (reference value: 90.08 %); conditions: read-out: Activity
# N2a [13] = assay: Induction of apoptosis in mouse Neuro2a cells assessed as necrotic cells at 0.1 uM incubated for 24 hrs by Annexin V-FITC/PI staining based analysis (reference value: 4.33 %)
# HCT-116 [14] = assay: Induction of cell cycle arrest in human HCT-116 cells assessed as accumulation of cells at G0/G1 phase at 0.1 uM incubated for 24 hrs by flow cytometric analysis (reference value: 90.2 %)
# HepG2 [15] = assay: Induction of apoptosis in human HepG2 cells assessed as early apoptotic cells at 0.1 uM incubated for 24 hrs by Annexin V-FITC/PI staining based flow cytometric analysis (reference value: 4.85 %)
# HepG2 [16] = assay: Induction of cell cycle arrest in human HepG2 cells assessed as accumulation of cells at S phase at 1 uM incubated for 24 hrs by flow cytometric analysis (reference value: 27.8 %)
# HepG2 [17] = assay: Induction of cell cycle arrest in human HepG2 cells assessed as accumulation of cells at G0/G1 phase at 1 uM incubated for 24 hrs by flow cytometric analysis (reference value: 66.4 %)
# HepG2 [18] = assay: Induction of apoptosis in human HepG2 cells assessed as fold increase in early apoptotic cells at 1 uM incubated for 24 hrs by Annexin V-FITC/PI staining based flow cytometric analysis
# N2a [19] = assay: Induction of apoptosis in mouse Neuro2a cells assessed as early apoptotic cells at 1 uM incubated for 24 hrs by Annexin V-FITC/PI staining based analysis (reference value: 3.17 %)
# HepG2 [20] = assay: Induction of apoptosis in human HepG2 cells assessed as late apoptotic cells at 1 uM incubated for 24 hrs by Annexin V-FITC/PI staining based flow cytometric analysis (reference value: 2.05 %)
# HepG2 [21] = assay: Induction of cell cycle arrest in human HepG2 cells assessed as accumulation of cells at G2/M phase at 1 uM incubated for 24 hrs by flow cytometric analysis (reference value: 27.8 %)
# HCT-116 [22] = assay: Induction of cell cycle arrest in human HCT-116 cells assessed as accumulation of cells at G2/M phase at 1 uM incubated for 24 hrs by flow cytometric analysis (reference value: 30.6 %)
# N2a [23] = assay: Induction of cell cycle arrest in mouse Neuro2a cells assessed as accumulation of cells at G2/M phase at 0.1 uM incubated for 24 hrs by flow cytometric analysis (reference value: 8.0 %)
# HepG2 [24] = assay: Induction of cell cycle arrest in human HepG2 cells assessed as accumulation of cells at G0/G1 phase at 0.1 uM incubated for 24 hrs by flow cytometric analysis (reference value: 66.4 %)
# HCT-116 [25] = assay: Induction of cell cycle arrest in human HCT-116 cells assessed as accumulation of cells at S phase at 0.1 uM incubated for 24 hrs by flow cytometric analysis (reference value: 19.2 %)
# N2a [26] = assay: Induction of cell cycle arrest in mouse Neuro2a cells assessed as accumulation of cells at S phase at 1 uM incubated for 24 hrs by flow cytometric analysis (reference value: 30.5 %)
# HCT-116 [27] = assay: Induction of apoptosis in human HCT-116 cells assessed as necrotic cells at 1 uM incubated for 24 hrs by Annexin V-FITC/PI staining based flow cytometric analysis (reference value: 1.45 %)
# HCT-116 [28] = assay: Induction of apoptosis in human HCT-116 cells assessed as viable cells at 0.1 uM incubated for 24 hrs by Annexin V-FITC/PI staining based flow cytometric analysis (reference value: 90.50 %); conditions: read-out: Activity
# N2a [29] = assay: Induction of apoptosis in mouse Neuro2a cells assessed as early apoptotic cells at 0.1 uM incubated for 24 hrs by Annexin V-FITC/PI staining based analysis (reference value: 3.17 %)
# N2a [30] = assay: Induction of apoptosis in mouse Neuro2a cells assessed as fold increase in early apoptotic cells at 1 uM incubated for 24 hrs by Annexin V-FITC/PI staining based analysis
# N2a [31] = assay: Induction of cell cycle arrest in mouse Neuro2a cells assessed as accumulation of cells at G2/M phase at 1 uM incubated for 24 hrs by flow cytometric analysis (reference value: 8.0 %)
# HCT-116 [32] = assay: Induction of cell cycle arrest in human HCT-116 cells assessed as accumulation of cells at G2/M phase at 0.1 uM incubated for 24 hrs by flow cytometric analysis (reference value: 30.6 %)
# HCT-116 [33] = assay: Induction of apoptosis in human HCT-116 cells assessed as late apoptotic cells at 0.1 uM incubated for 24 hrs by Annexin V-FITC/PI staining based flow cytometric analysis (reference value: 6.15 %)
# N2a [34] = assay: Induction of apoptosis in mouse Neuro2a cells assessed as necrotic cells at 1 uM incubated for 24 hrs by Annexin V-FITC/PI staining based analysis (reference value: 4.33 %)
# HCT-116 [35] = assay: Induction of apoptosis in human HCT-116 cells assessed as early apoptotic cells at 0.1 uM incubated for 24 hrs by Annexin V-FITC/PI staining based flow cytometric analysis (reference value: 1.90 %)
# N2a [36] = assay: Induction of cell cycle arrest in mouse Neuro2a cells assessed as accumulation of cells at S phase at 0.1 uM incubated for 24 hrs by flow cytometric analysis (reference value: 30.5 %)
# HepG2 [37] = assay: Induction of cell cycle arrest in human HepG2 cells assessed as accumulation of cells at S phase at 0.1 uM incubated for 24 hrs by flow cytometric analysis (reference value: 27.8 %)
# HCT-116 [38] = assay: Induction of apoptosis in human HCT-116 cells assessed as viable cells at 1 uM incubated for 24 hrs by Annexin V-FITC/PI staining based flow cytometric analysis (reference value: 90.50 %); conditions: read-out: Activity
# N2a [39] = assay: Induction of apoptosis in mouse Neuro2a cells assessed as late apoptotic cells at 1 uM incubated for 24 hrs by Annexin V-FITC/PI staining based analysis (reference value: 0.81 %)
# N2a [40] = assay: Induction of cell cycle arrest in mouse Neuro2a cells assessed as accumulation of cells at G0/G1 phase at 0.1 uM incubated for 24 hrs by flow cytometric analysis (reference value: 61.5 %)
# N2a [41] = assay: Induction of apoptosis in mouse Neuro2a cells assessed as viable cells at 1 uM incubated for 24 hrs by Annexin V-FITC/PI staining based analysis (reference value: 91.70 %); conditions: read-out: Activity
# HCT-116 [42] = assay: Induction of cell cycle arrest in human HCT-116 cells assessed as accumulation of cells at S phase at 1 uM incubated for 24 hrs by flow cytometric analysis (reference value: 19.2 %)
# HCT-116 [43] = assay: Induction of apoptosis in human HCT-116 cells assessed as fold increase in early apoptotic cells at 1 uM incubated for 24 hrs by Annexin V-FITC/PI staining based analysis
# HCT-116 [44] = assay: Induction of apoptosis in human HCT-116 cells assessed as necrotic cells at 0.1 uM incubated for 24 hrs by Annexin V-FITC/PI staining based flow cytometric analysis (reference value: 1.45 %)
# HepG2 [45] = assay: Induction of apoptosis in human HepG2 cells assessed as early apoptotic cells at 1 uM incubated for 24 hrs by Annexin V-FITC/PI staining based flow cytometric analysis (reference value: 4.85 %)
# HepG2 [46] = assay: Induction of apoptosis in human HepG2 cells assessed as late apoptotic cells at 0.1 uM incubated for 24 hrs by Annexin V-FITC/PI staining based flow cytometric analysis (reference value: 2.05 %)
# HCT-116 [47] = assay: Induction of cell cycle arrest in human HCT-116 cells assessed as accumulation of cells at G0/G1 phase at 1 uM incubated for 24 hrs by flow cytometric analysis (reference value: 90.2 %)
# HepG2 [48] = assay: Induction of apoptosis in human HepG2 cells assessed as necrotic cells at 0.1 uM incubated for 24 hrs by Annexin V-FITC/PI staining based flow cytometric analysis (reference value: 3.02 %)
compound,measurement,setting,value
C=C1[C@@H](O)[C@@H]2O[C@]3(CC[C@H](/C=C/[C@@H](C)[C@@H]4CC(C)=C[C@@]5(O[C@H](C[C@@](C)(O)C(=O)O)CC[C@H]5O)O4)O3)CC[C@H]2O[C@@H]1[C@@H](O)C[C@H](C)[C@H]1O[C@@]2(CCCCO2)CC[C@H]1C [OKADAIC ACID],Activity,HCT-116 [1],3.65%
same,Activity,HCT-116 [2],16.9%
same,Activity,N2a [3],7.75%
same,fold change (FC),N2a [4],13.2
same,viability at 0.1 µM,N2a [5],76.4%
same,Activity,HepG2 [6],14.6%
same,viability at 0.1 µM,HepG2 [7],52.7%
same,fold change (FC),HCT-116 [8],2.8
same,fold change (FC),HepG2 [9],11
same,Activity,N2a [10],36%
same,Activity,HepG2 [11],2.92%
same,viability at 1 µM,HepG2 [12],50.9%
same,Activity,N2a [13],4.9%
same,Activity,HCT-116 [14],32.2%
same,Activity,HepG2 [15],13.5%
same,Activity,HepG2 [16],37.2%
same,Activity,HepG2 [17],49.5%
same,fold change (FC),HepG2 [18],4.9
same,Activity,N2a [19],29.01%
same,Activity,HepG2 [20],22.44%
same,Activity,HepG2 [21],13.3%
same,Activity,HCT-116 [22],20.4%
same,Activity,N2a [23],13%
same,Activity,HepG2 [24],48.5%
same,Activity,HCT-116 [25],23%
same,Activity,N2a [26],55%
same,Activity,HCT-116 [27],19.75%
same,viability at 0.1 µM,HCT-116 [28],79.2%
same,Activity,N2a [29],10.91%
same,fold change (FC),N2a [30],9.2
same,Activity,N2a [31],8.1%
same,Activity,HCT-116 [32],44.6%
same,Activity,HCT-116 [33],7.55%
same,Activity,N2a [34],0.57%
same,Activity,HCT-116 [35],0.8%
same,Activity,N2a [36],56.6%
same,Activity,HepG2 [37],36.8%
same,viability at 1 µM,HCT-116 [38],59.7%
same,Activity,N2a [39],10.7%
same,Activity,N2a [40],30.4%
same,viability at 1 µM,N2a [41],59.7%
same,Activity,HCT-116 [42],23.9%
same,fold change (FC),HCT-116 [43],1.9
same,Activity,HCT-116 [44],12.45%
same,Activity,HepG2 [45],23.72%
same,Activity,HepG2 [46],24.73%
same,Activity,HCT-116 [47],55.5%
same,Activity,HepG2 [48],9.05%
